Patent US20190209712A1, “HUMANIZED MURINE MODEL OF CHRONIC HEPATITIS B CONSTRUCTED USING STEM CELLS AND METHOD OF USING SAME” (Zhejiang University, priority 2017, published 2019)

Test system: HBV
Assay: Efficacy of and drug resistance to antiviral drugs in humanized rat model of chronic hepatitis B (HBV viral load)
Assay type: in vivo
Conditions: humanized rats with chronic hepatitis B; therapeutic dose; 1, 2, 4, 8, 12 and 24 weeks after treatment; FIG. 2
Procedure: The Study of Efficacy of and Drug Resistance to the Antiviral Drugs Using a Humanized Rat Model of Chronic Hepatitis B • 1. 200 humanized rats with chronic hepatitis B were randomly divided into four groups. There were no significant differences in age, gender, weight and baseline of HBV viral load among the groups. • 2. Therapeutic dose of commonly used antiviral drugs lamivudine, telbivudine, entecavir and tenofovir were administered to each of the four groups, respectively. • 3. At 1 week, 2 weeks, 4 weeks, 8 weeks, 12 weeks and 24 weeks after the treatment, the viral load of HBV in each group of rats was detected, respectively. • 4. Curves were plotted based on the viral load in each group at each time point. The difference between the groups was compared to evaluate the efficacy of and drug resistance to existing commonly used antiviral drugs.

Structure (SMILES)	drop of the viral titer curves (viral load of HBV)
C=C1[C@H](CO)[C@@H](O)C[C@@H]1n1cnc2c(=O)[nH]c(N)nc21 [entecavir]	superior to those of the telbivudine group and the lamivudine group
C[C@H](Cn1cnc2c(N)ncnc21)OCP(=O)(O)O [tenofovir]	superior to those of the telbivudine group and the lamivudine group
